What was measured:
PPARγ [1] = target: T1, PPARγ (Homo sapiens, UniProt P37231); test: LanthaScreen TR-FRET competitive binding assay (reference agonist; value not given)
T1 construct: gene PPARG; GST-fused human PPARγ-LBD
T1 sequence (P37231 231-505 limits assumed): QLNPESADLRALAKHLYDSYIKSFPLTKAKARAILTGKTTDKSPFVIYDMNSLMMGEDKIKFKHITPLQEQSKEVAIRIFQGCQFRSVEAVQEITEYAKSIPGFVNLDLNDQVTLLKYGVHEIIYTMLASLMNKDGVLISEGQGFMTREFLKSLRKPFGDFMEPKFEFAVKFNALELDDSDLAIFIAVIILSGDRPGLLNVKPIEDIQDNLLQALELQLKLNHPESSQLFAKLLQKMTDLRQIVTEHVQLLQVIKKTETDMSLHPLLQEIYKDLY

PPARγ [2] = target: T1, PPARγ; test: LanthaScreen TR-FRET competitive binding assay

Structure (SMILES) | LanthaScreen TR-FRET competitive binding assay (reference agonist); no value prin (PPARγ [1]) | Ki (PPARγ [2]) [nM]
CN(CCOc1ccc(CC2SC(=O)NC2=O)cc1)c1ccccn1 (centres unmarked) [rosiglitazone] | Madecassic acid or rosiglitazone was cultured with GST-fused human PPARγ-LBD, terbium-labeled anti-GST antibody and a fluorescently labeled PPAR ligand | 
C[C@H]1[C@H](C)CC[C@]2(C(=O)O)CC[C@]3(C)C(=CC[C@@H]4[C@@]5(C)C[C@@H](O)[C@H](O)[C@@](C)(CO)[C@@H]5[C@H](O)C[C@]43C)[C@H]12 [madecassic acid] |  | 1610
